The source of these data is a melting point compilation (Tetko et al.; mined from patent text by program, amines drawn as free bases though some values may be those of a salt).

For the compound `COc1ccc(N2CCN(c3c(C)c(C)c4c(c3C)C(N3CCN(Cc5ccccc5)CC3)C(C)(C)O4)CC2)cc1` (stereo unspecified), the melting point lay in the range of 112 to 116 °C.

Consider `Cn1cnc2ccc(-c3nnc(CCc4cccc(F)c4)o3)cc21`, for which the melting point lay within 145 to 146 °C.

Turning to `OCc1cccc(-c2ccc(-c3cn([C@H]4CN5CCC4CC5)nn3)cc2)c1`, the melting point was determined as 207 °C.

Compound `Cn1ncc2c(c1=O)SCCNC2Cc1ccccc1` (stereo unspecified) showed a melting point of 108 to 109 °C.

For the compound `CSC1CC(=O)N1CC(=O)c1ccccc1` (stereo unspecified), the melting point is 43 to 45 °C.

Compound `C=CC(=O)c1cn(C)c2ccccc12` came in with a melting point of 106 to 107 °C.

Turning to `CCc1nc2cc(NS(C)(=O)=O)c(Cl)cc2n1-c1ccc(CCNC(=O)NS(=O)(=O)c2ccc(C)cc2)cc1`, the melting point fell in the range of 101 to 123 °C.

`CC(=NC(C#N)=C(N)C#N)c1cccs1` displayed a melting point of 177 to 179 °C.

With `O=C(c1ccccc1)c1c(Cl)cc(CBr)cc1Cl`, the melting point is 111 to 113 °C.

As to `OC(Cc1ccc(Cl)cc1)(Cn1cncn1)Cn1cncn1`, the melting point lay within 116 to 118 °C.

`CC(C)CNC(=O)C(C)NC(=O)OCc1ccccc1` (stereo unspecified): the melting point is 109 to 111 °C.

The compound `CC=CC=NNC(=O)c1cccnc1` gave a melting point of 144 to 145 °C.

Compound `CC1(C)Oc2ccc(OC(F)(F)F)cc2[C@@H](NC(=O)c2ccccc2[N+](=O)[O-])[C@@H]1O` came in with a melting point of 189 to 190 °C.

For `COCCOCc1c(CO)sc2c(=O)c(C(=O)NCc3ccc(Cl)cc3)cn(C)c12`, the melting point is 167 to 168 °C.

Consider `CCC(CC)n1cnc2c1c(=O)n(C)c(=O)n2-c1ccc(Cl)cc1Cl`, for which the melting point lay within 158 to 159 °C.

`N#Cc1cnn(C2CCCCC2)c1N` came in with a melting point of 99 to 103 °C.

Turning to `O=C(O)CCCc1nc(NCc2ccc3c(c2)OCO3)c2cc(Cl)sc2n1`, the melting point is 112 °C.

As for `Nc1ccc2ccc(Oc3ccc(Cl)cc3)nc2n1`, the melting point worked out at 177 °C.

For `COc1ccc(C(=C/C=C/C(=O)O)c2ccc(OC)c(OC)c2)cc1OC`, the melting point was in the range of 174 to 176 °C.

As to `CN(Sc1nc2ccccc2s1)C(C)(C)C`, the melting point lay in the range of 56 to 58 °C.

With `O=C(O)c1cn(C2CCC2)c2c(F)c(F)c(F)cc2c1=O`, the melting point was in the range of 192 to 194 °C.

As to `CC[C@H](C(=O)O)[C@H](N)C(=O)O`, the melting point was in the range of 239 to 241 °C.

Take `O=C1CC(c2ccccc2O)=Nc2ccc(N3CCCC3)cc21`: the melting point is 304 to 306 °C.

With `CC1=CC(OC(=O)c2ccc([N+](=O)[O-])cc2)C2OC1(OCCO)CC2(C)C` (stereo unspecified), the melting point was in the range of 166 to 168 °C.

The compound `CN(C(=O)C1CCCN(c2ccc([N+](=O)[O-])c(C=C3NC(=O)NC3=O)c2)C1)C1CCCCC1` (stereo unspecified) displayed a melting point of 153 to 162 °C.

The compound `CC(=O)OCc1[nH]c2c(c1C)C(=O)C(N1CC1)=C(C)C2=O` showed a melting point of 210 to 212 °C.

Regarding `C=CCN(C)c1nc(Cc2ccc(OC)c(OC)c2)nc2sc(C#N)c(C)c12`, the melting point lay in the range of 98 to 100 °C.

For the compound `Cc1ccc2c(c1)C=C(C(=O)O)C(C(F)(F)F)O2` (stereo unspecified), the melting point was in the range of 192 to 193 °C.

Take `Cn1cc(-c2ccccc2)c(=O)c(-c2ccccc2F)c1`: the melting point turned out to be 165 °C.

As to `CCCCCCCCCCCCOc1ccc(C(C)=O)o1`, the melting point was in the range of 66 to 67 °C.

Compound `COc1cc2c(cc1-c1c(C)nn(C)c1C)-c1c(-c3cccs3)c3c(n1CC2)C(=O)N(C(C)C)CCN(C(C)=O)C3` showed a melting point of 178 to 180 °C.

As to `O=C(NCC1Cc2c(cccc2-c2ccccc2)O1)OCc1ccccc1` (stereo unspecified), the melting point is 132 to 134 °C.

In turn, `COCCCn1c(Cl)nc2ccc(C)cc21` yielded a melting point of 40 to 44 °C.

In turn, `Cc1cc(SCc2ccnc3sc(-c4ccc(C(F)(F)F)cc4)nc23)ccc1OCC(=O)O` came in with a melting point of 82 to 85 °C.

As for `CN1CCN(Cc2ccc(-c3cccc(-c4ccnc5c(C(=O)c6cccs6)cnn45)c3)cc2)CC1`, the melting point lay within 199 to 202 °C.

`COC(=O)Cc1cc(Br)c(S(=O)(=O)c2ccc(O)c(C(C)C)c2)c(Br)c1` showed a melting point of 159 to 160 °C.

The term melting point denotes the temperature, or range, at which the solid turns liquid.
